Laboratory results published in US20240245696A1, “INHIBITORS OF DNA PK AND USES THEREOF” (BioVentures, LLC, priority 2017, published 2024).
Entries after “also recorded” stand apart in the source; their conditions may differ.

Assays:
Type in all cases: cell-based, human
[1] = tested on: IL-2; assay: Secreted IL-2 ELISA, PBMCs stimulated with PHA+PMA; conditions: PBMC, activation with PMA+PHA
Procedure: Cell Culture: Human peripheral blood mononuclear cells (PBMC,) and Jurkat cells were purchased from ATCC (PCS-800-011, Manassas, VA). Cells were maintained at 37° C. in a humidified atmosphere composed of 5% CO2. Jurkat cells were cultured in RPMI 1640 medium which was supplemented with 10% FCS and human PBMC was cultured in RPMI 1640 medium which was supplemented with 10% FCS and pen/strep. Both Jurkat cells and PBMC were stimulated with PHA (50 ng/mL) and PMA (1 μg/mL) for 24 hours prior to harvesting for IL-2 detection or 6 hours prior for western blot analysis. The NU7441 DNA-PKcs inhibitor was added at varying concentrations at the time of stimulation. Detection of secreted IL-2: Secreted IL-2 was detected by Human IL-2 ELISA Kit from Thermo Scientific (Waltham, MA). The manufacturer's protocol was followed. Prior to harvesting, cells were treated with PHA (50 ng/ml) and PMA (1 μg/mL) for 24 hours with or without the NU7441 inhibitor. Jurkat cells stimulated with the anti-CD28/CD3 dynabeads were done so according to the manufacturer's protocol at a 1:1 ratio for 24 hours prior to harvesting. After stimulation, supernatant samples of Jurkat cells or PBMCs (2 million cells/mL) were collected and diluted 10 times before the assay. […] Stop solution was added and the absorbance of each well was read at 450 nm using the plate reader.

[2] = tested on: Jurkat cells; assay: Cell viability assay (CELLTITER 96 AQUEOUS One) in Jurkat cells; conditions: NU7441 at varying concentrations, 48 hours
Procedure: Cell Culture: Human peripheral blood mononuclear cells (PBMC,) and Jurkat cells were purchased from ATCC (PCS-800-011, Manassas, VA). Cells were maintained at 37° C. in a humidified atmosphere composed of 5% CO2. Jurkat cells were cultured in RPMI 1640 medium which was supplemented with 10% FCS and human PBMC was cultured in RPMI 1640 medium which was supplemented with 10% FCS and pen/strep. Both Jurkat cells and PBMC were stimulated with PHA (50 ng/mL) and PMA (1 μg/mL) for 24 hours prior to harvesting for IL-2 detection or 6 hours prior for western blot analysis. The NU7441 DNA-PKcs inhibitor was added at varying concentrations at the time of stimulation. Cell viability assay: Cell viability assay was performed using Promega CELLTITER 96 AQUEOUS One Solution Cell Proliferation Assay (Madison, WI) and following the manufacturer's protocol. Briefly, 100 μL of PBMC or Jurkat cells were plated in a 96-well plate and treated with various concentration of NU7441 for 48 hours. CELLTITER solution (20 μL/100 μL of cell suspension) was added to the cells and the plate was incubated for 3 hours at 37° C. and the absorbance at 490 nm was recorded using SynergyHTX (BioTek, Winooski, VT) plate reader.

[3] = tested on: CHK2; assay: Western blot of phosphorylated CHK2 (Thr68) in activated Jurkat cells; conditions: Jurkat activated with PMA+PHA
Procedure: Cell lysis and nuclear extract: Cells were washed with cold PBS twice and centrifuged at 5000 rpm for 5 minutes. For the nuclear extract, pellets were suspended with 800 μL of 10 mN HEPES lysis buffer (10 mM HEPES at pH 7.9, 10 mM KCl, 1 mM DTT, and 1× protease and phosphatase inhibitor) and incubated on ice for 15 minutes. 50 μL of NP-40 (10% in water) was added and the pellets were mixed for 10 seconds. Lysates were centrifuged for 5 minutes at 4° C. at 13,000 rpm. The supernatant solution which is containing the cytosolic fraction was discarded and the pellets were resuspended in 20 mM HEPES lysis buffer (20 mM HEPES at pH 7.9, 0.4 M NaCl, 1 mM DTT, and 1× protease, and phosphatase inhibitor) and incubated on ice for 15 minutes with intermittent mixing. Lysates were centrifuged for 10 minutes at 4° C. at 13,000 rpm. The supernatant containing nuclear extract was stored at -20° C. until they were used for the Western blot analysis. For total cell lysates, cell pellets were resuspended with 100 μL of RIPA buffer (150 mM NaCl, 1% Triton X-100, 0.1% SDS, and 50 mM Tris at pH 8.0) and incubated on ice for 10 minutes. The lysates were centrifuged for 10 minutes at 4° C. at 13,000 rpm and the supernatant solutions were stored at -20° C. until they were used for the Western blot analysis. Western blot analysis: Nuclear extract lysates were separated on 3-8% Tris-Acetate gels (Invitrogen). […]

[4] = tested on: IL-2; assay: Secreted IL-2 ELISA, Jurkat cells stimulated with anti-CD28/CD3 dynabeads; conditions: anti-CD28/CD3 dynabeads 1:1 ratio, 24 hours
Procedure: Detection of secreted IL-2: Secreted IL-2 was detected by Human IL-2 ELISA Kit from Thermo Scientific (Waltham, MA). The manufacturer's protocol was followed. Prior to harvesting, cells were treated with PHA (50 ng/ml) and PMA (1 μg/mL) for 24 hours with or without the NU7441 inhibitor. Jurkat cells stimulated with the anti-CD28/CD3 dynabeads were done so according to the manufacturer's protocol at a 1:1 ratio for 24 hours prior to harvesting. After stimulation, supernatant samples of Jurkat cells or PBMCs (2 million cells/mL) were collected and diluted 10 times before the assay. IL-2 standards and samples (50 μL) and Biotinylated antibody reagents (50 μL) were added to each well and the plate was incubated for 3 hours at room temperature. The plate was washed 3 times and 100 μL of Streptavidin-HRP solution was added. After 30 minutes of incubation at room temperature, the plate was washed 3 times. TMB substrate (100 μL) was added and incubated for 30 minutes in the dark at room temperature. Stop solution was added and the absorbance of each well was read at 450 nm using the plate reader.

In the case of `O=c1cc(N2CCOCC2)oc2c(-c3cccc4c3sc3ccccc34)cccc12` [NU7441], the “level of IL-2 produced” value [1] is reported as “significantly reduce IL-2 production”, the “viability of Jurkat cells” value [2] is reported as “did not alter the viability; also recorded: no significant reduction in viability” and the “CHK2 phosphorylation at Thr68” value [3] is reported as “reduced CHK2 phosphorylation”. For the same molecule, the “CHK2 phosphorylation at Thr68” value ([3]; listed as NU744) was “reduced” and the IL-2 production [4] was “significantly blocked IL-2 production; also recorded: inhibited”.
